Data: patent publication US20240165047A1, “Use Of Honokiol In Preparation Of Drug For Treating Meningioma” (Chengdu Jinrui Foundation Biotech Co., Ltd., priority 2021, published 2024)

Columns and labels:
meningioma = assay: Phase I clinical trial of honokiol liposome for injection: cranial MR re-examination of meningioma patients, RANO standard; type: in vivo, human; conditions: summary statement of the clinical trials
From the text: (§1) Description of the Subject: • person; • on Jan. […] 27, 2018, the subject underwent the resection of a deep skull bottom lesion, endothelial meningoma, and local lesion being hemangioma-type meningoma, accompanied by bleeding, showing the non-typical meningioma, infiltrating bone tissue, comprehensive to malignant meningoma; immunohistochemistry: EMA (positive), PR (scattered in a little positive), SSTR (focal positive), CD34 (blood vessel positive), CD99 (+), S100 (-), Syn (-), CgA (-), CK (occasionally positive), Ki67 (about 8-20%); • in February 2019, the subject was treated for intracranial infection; • in June 2019, the subject received whole brain radiotherapy; • on Mar. 5, 2021, the subject re-examined the cranial MR and the tumor recurred; in order to further treat, at the outpatient of Beijing […] […]

[1] = Phase I clinical trial of clinical safety and tolerance of honokiol liposome for injection, safety analysis set (patients with advanced malignant solid tumors); type: in vivo, human; conditions: summary statement of the clinical trials
From the text: as §1

## C=CCc1ccc(O)c(-c2ccc(O)c(CC=C)c2)c1 [honokiol, 3′,5-di-2-propenyl-1,1′-biphenyl-2,4′-diphenol]
meningioma
  overall efficacy against meningioma in clinical trials: effectively treat the meningioma
[1]
  overall safety and tolerance in clinical trials: good safety and tolerance
